Here are results for 10 compounds from patent US20030125287A1, “Antisense oligonucleotides and methods to induce tumor cell death” (Hybridon, Inc., priority 2001, published 2003).

Entries after “also recorded” stand apart in the source; their conditions may differ. Oligonucleotides are written 5' to 3', each unit as a sugar letter and its base; * is a phosphorothioate linkage, no mark a phosphodiester; rarer units and linkages stand in square brackets, end groups in braces. Plain capitals give the bases only. d = 2'-deoxy (DNA)

Data set [1] has as its system survivin. Description: Western blot of survivin protein in MSN cells treated with cell cycle checkpoint blockers. Format: cell-based, human. The settings on record: for survivin expression / survivin protein abundance after cell cycle blocker: result in words, cell line not given; for fold increase of survivin protein relative to DMSO or EtOH: MSN cells, vinblastine 250 nM, nocadozole 10 μM, taxotere 1 μM. The protocol:
Total protein was isolated from MSN cells either untreated or treated with vinblastine (250 nM), nocadozole (10 μM), or taxotere (1 μM). DMSO and ethanol (EtOH) were added as carriers. Each lane had 75 μg of total protein. The blots were cut at 32.9 kD, and the bottom blots were incubated with a survivin polyclonal antibody (1:500), while the top blot was incubated with a β-tubulin mAb (1:1000). In each of the treatments, the fold increase of survivin protein relative to DMSO or EtOH was vinblastine, 1.9; nocadozole, 2.6; taxotere, 1.7.
(§1) To block cells in G2/Ml MSN cells or TC620 cells were treated with 10 μM nocodazole, 1 μM taxotere, or 250 nM vinblastine for 16 hours, at which time total protein homogenates were isolated and proteins were examined following sodium dodecyl sulfate-polyacrylamide gel electrophoresis (SDS-PAGE) and immunoblotting.
(§2) Ten micrograms of the fusion protein was incubated with the survivin antibody (1:500) at 4° C. for 2 hours to overnight prior to immunoblotting. […] Blots were cut at 32.9 kD, and the bottom part of the blots were incubated with the survivin antibody overnight at 4° C. and visualized by enhanced chemiluminescence (Enhanced Chemiluminescence, Amersham, Arlington Heights, Ill.) as previously described (Sharma et al. Cell. Motil. Cytoskeleton 27:234-247).
(In general: A western blot detects proteins with antibodies after separation by electrophoresis.)

For data set [2], the system named is XIAP. The settings on record: MSN cells; 400 nM; 48 hours (FIG. 10A). The protocol:
MSN cells were treated with lipofectin or 400 nM survivin antisense oligonucleotides 900, 901, 903, 904, 905 and 906. Total protein was isolated 48 hours after treatment, and 100 μg of protein was loaded per lane. The blot was incubated with a monoclonal antibody against XIAP (1:1000; IgG1). Visualization was by enhanced chemiluminescence (ECL). […] The experiment was performed twice.
Total protein homogenates were prepared according to a previously described procedure (Albala et al. (1995) J. Neurochem. 64:2480-2490). Protein content was measured using the Bio-Rad detection system (Bio-Rad Laboratories, Hercules, Calif.). Equal amounts of protein were analyzed by SDS-PAGE on 10% gels (Laemmli (1970) Nature 227:680-685). The resolved polypeptides were electrophoretically transferred to nitrocellulose (Towbin et al. (1979) Proc. Natl. Acad. Sci. USA 76:4350-4354).
Survivin polyclonal antibody was purchased from R & D Systems, Inc. (Minneapolis, Minn.). […] A generic β-tubulin monoclonal antibody (TUB 2.1) was purchased from SIGMA (St. Louis, Mo.). The XIAP mAb was purchased from StressGen Biotechnologies Corp. (Victoria, Canada). The poly-ADP ribosyl polymerase (PARP) mAb was purchased from PharMingen/Transduction Laboratories (San Diego, Calif.).

The subject of data set [3] is survivin. Put plainly: Western blot of survivin protein in antisense oligonucleotide-treated MSN cells. Format: cell-based, human. The protocol:
Six survivin (900-906) antisense oligonucleotides were administered at 400 nM to MSN cells in the presence of lipofectin for 48 hours. Each lane has 100 μg of protein. The blots were cut at 32.9 kD and the bottom incubated with the survivin polyclonal antibody (1:500), while the top was incubated with β-tubulin.
Since survivin antisense oligonucleotide 903 decreased survivin protein levels by 76%, the dose dependency of 903 on survivin protein levels was further studied. As expected, mismatched oligonucleotides had no effect on the relative abundance of survivin. […] In the presence of lipofectin, survivin antisense oligonucleotide 903 was administered to MSN cells for 48 hours at 50 nM to 200 nM. Total protein (100 μg) was loaded/lane.
Survivin antisense oligonucleotide 904 decreased survivin protein levels by 46% and 60% while survivin levels were unchanged in cells incubated with the mismatched oligonucleotide 1132. MSN cells were treated with lipofectin, survivin antisense oligonucleotide 904 or 908 at 400 nM and 600 nM, or mismatched oligonucleotide 1132 at 400 nM concentrations. Total protein (100 μg) was separated by SDS polyacrylamide gel electrophoresis and transferred to a nitrocellulose support. The blots were cut at 32.9 kD and the bottom blots incubated with the survivin polyclonal antibody (1:500), while the top blots were incubated with tubulin.
The antisense oligonucleotides were synthesized on solid support with an automated DNA synthesizer using β-cyanoethylphosphoramidite chemistry. In order to prevent rapid degradation of the antisense oligonucleotides by cellular nucleases, oxidation was carried out with Becauge sulfurizing agent to obtain phosphorothioate backbone modified oligonucleotides. After their synthesis, the oligonucleotides were released from the solid support, deprotected, purified by reverse-phase HPLC, desalted, filtered and lyophilized. The purity and sequence integrity of oligonucleotides was ascertained by capillary gel electrophoresis and MALDI-TOF mass spectral analysis and the concentrations measured at […]. Cells were grown in 100 mm dishes and oligonucleotide treatment was performed on subconfluent cultures in the presence of Lipofectin (GIBCO) according to the manufacturer. Forty-eight hours following treatment, total protein homogenates were isolated.
as §2

Data set [4] deals with survivin. Put plainly: Western blot of survivin protein in nocodazole-treated TC620 cells. The format is cell-based, human. To be noted: nocodazole 10 μM, 24 h. On the procedure:
The Western blot as represented in FIG. 2B was prepared by isolating total protein from nocadozole-treated (10 μM, 24 h) and untreated TC620 cells, MSN cells, and Jurkat cells. Each lane had 75 μg of total protein.
as §1

The subject of data set [5] is MSN cells. Put plainly: Flow cytometry of MSN cells treated with G2/M blockers. Format: cell-based, human. The protocol: Next, the regulation of survivin expression at G2/M cell cycle checkpoints was evaluated. First, survivin expression was increased following treatment with the G2/M checkpoint blockers, vinblastine, nocodazole, and taxotere.
(In general: Flow cytometry measures light scatter and fluorescence of single cells or particles in a stream.)

Data set [6] has as its system caspase-3. Put plainly: Caspase-3 activity assay in MSN cells. Format: cell-based, human. On the procedure:
MSN cells were treated with lipofectin, 400 nM survivin antisense oligonucleotide 903, 904, or mismatched oligonucleotide 1132, for a 48 hour period. Cell pellets were washed twice in cold PBS and re-suspended in ice-cold hypotonic cell lysis buffer (25 mM HEPES, pH 7.5, 5 mM MgCl2, 5 mM EDTA, 5 mM DTT, 2 mM PMSF, 10 μg/ml pepstatin A, 10 μg/ml leupeptin). Re-suspended pellets were incubated on ice for 20 min, followed by brief sonication for two seconds. Lysates were centrifuged at 14,000 rpm for 20 minutes at 4° C. The supernatant was retained and the protein concentration analyzed by the Bio-Rad protein assay described above.
Supernatants were assayed in triplicate, with and without the caspase-3 inhibitor, Ac-DEVD-CHO, using black opaque, 96 well, flat bottom plates (Greiner Laboratories, USA Scientific Inc., Orlando, Fla.). 50-100 μg of the supernatant was incubated in caspase-3 assay buffer (100 mM HEPES, pH 7.5, 10% sucrose, 0.1% CHAPS and 10 mM DTT) with either 2 μl of DMSO or 2 μl of 2.5 mM Ac-DEVD-CHO (Pharmingen, San Diego, Calif.) so that the final concentration of the inhibitor was 50 μM in a final volume of 100 μl. It was then incubated at 30° C. for 30 minutes. Subsequently, 2 μl of the caspase-3 substrate 2.5 mM Ac-DEVD-AMC (Pharmingen, San Diego, Calif.) (final concentration 50 μM)) was added to each well. Plates were incubated at 30° ° C. for 60 minutes in the dark.
Fluorescence of the reaction was measured using a SPECTRAmax GEMINI spectrofluorometer using SOFTmax® PRO software (Molecular Devices, Sunnyvale, Calif.) at an excitation wavelength of 355 nm and an emission wavelength of 460 nm with a cutoff filter of 455 nm. The data is presented as the ratio of the mean relative fluorescence units/mg protein±SD.

The test system of data set [7] is caspase-3. Description: Caspase-3 activity assay in MSN cells. The format is cell-based, human. The source holds these as a separate data set.
For data set [8], the system named is PARP. Description: PARP cleavage immunoblot in MSN cells. Format: cell-based, human. The protocol: To determine whether MSN cell death by survivin antisense oligonucleotides was mediated by caspase-3 activation, studies were conducted to examine whether PARP was cleaved following survivin antisense treatment. […] Since no PARP cleavage was detected, further tests were conducted to determine whether survivin antisense-treated cells have any active caspase-3.

Setting [9] is: 400 nM, lipofectin, 48 hours (FIG. 3A).

For the compound `CN1CC[C@H](c2c(O)cc(O)c3c(=O)cc(-c4ccccc4Cl)oc23)[C@H](O)C1` [flavopiridol], the “survivin expression / survivin protein abundance after cell cycle blocker” value in data set [1] is reported as “did not alter survivin protein abundance”.

As for “d(CAGTGGATGAAGGCAGCCTC) (antisense dC*dA*dG*dT*dG*dG*dA*dT*dG*dA*dA*dG*dG*dC*dA*dG*dC*dC*dT*dC) [Oligo 901, 20-mer phosphorothioate survivin antisense oligonucleotide, complementary to survivin mRNA 3180-3199]”, in data set [2], the “fold change of XIAP protein over β-tubulin relative to lipofectin” value came out at 3.9 fold. Besides, the “percentage of survivin protein over β-tubulin relative to lipofectin” value in data set [3] (setting [9]) was 38.3%.

With “d(GAGCCTTCCTCTTCATGTCC) (antisense dG*dA*dG*dC*dC*dT*dT*dC*dC*dT*dC*dT*dT*dC*dA*dT*dG*dT*dC*dC) [Oligo 905]”, the “fold change of XIAP protein over β-tubulin relative to lipofectin” value in data set [2] is listed as 7.6 fold.

For the compound `COC(=O)Nc1nc2ccc(C(=O)c3cccs3)cc2[nH]1` [nocodazole], in data set [1], the “fold increase of survivin protein relative to DMSO or EtOH” value worked out at 2.6 fold and the “survivin expression / survivin protein abundance after cell cycle blocker” value is on record as “increased”. Further, in data set [4], the “fold increase in survivin protein” value turned out to be 1.6 fold.

For the compound `CC[C@]1(O)C[C@@H]2CN(CCc3c([nH]c4ccccc34)[C@@](C(=O)OC)(c3cc4c(cc3OC)N(C)[C@H]3[C@@](O)(C(=O)OC)[C@H](OC(C)=O)[C@]5(CC)C=CCN6CC[C@]43[C@@H]65)C2)C1` [vinblastine], in data set [1], the “fold increase of survivin protein relative to DMSO or EtOH” value was 1.9 fold and the “survivin expression / survivin protein abundance after cell cycle blocker” value was “increased”. Besides, in data set [5], the “cell cycle phase by flow cytometry” value is listed as “blocked at the G2/M cell cycle phase”.

“d(GCCAGTTCTTGAATGTAGAG) (antisense dG*dC*dC*dA*dG*dT*dT*dC*dT*dT*dG*dA*dA*dT*dG*dT*dA*dG*dA*dG) [Oligo 900, 20-mer phosphorothioate survivin antisense oligonucleotide, complementary to survivin mRNA 2867-2886]”: the “fold change of XIAP protein over β-tubulin relative to lipofectin” value in data set [2] came out at 2.3 fold. The “percentage of survivin protein over β-tubulin relative to lipofectin” value in data set [3] (setting [9]) was found to be 77.7%.

Take Ac-DEVD-CHO [reference compound]: in data set [6] (added to MSN cell supernatants, final concentration 50 μM), the “effect of caspase-3 inhibitor on caspase-3 activation in the assay” value was “eliminated caspase-3 activation”.

As for `CN[C@@H]1C[C@H]2O[C@@](C)([C@@H]1OC)n1c3ccccc3c3c4c(c5c6ccccc6n2c5c31)C(=O)NC4` [Staurosporine], the “caspase-3 activity, Relative units/mg protein +/− SD” value in data set [7] (1 μM, 6 hours, triplicate) was 264,281 ± 8130 Relative units/mg protein. Also, in data set [7] (staurosporine treatment), the “fold increase in caspase-3 activity” value is on record as “over 7 fold”.

As to `CC(=O)O[C@@]12CO[C@@H]1C[C@H](O)[C@@]1(C)C(=O)[C@H](O)C3=C(C)[C@@H](OC(=O)[C@H](O)[C@@H](NC(=O)OC(C)(C)C)c4ccccc4)C[C@@](O)([C@@H](OC(=O)c4ccccc4)[C@H]21)C3(C)C` [taxotere], in data set [1], the “fold increase of survivin protein relative to DMSO or EtOH” value was found to be 1.7 fold and the “survivin expression / survivin protein abundance after cell cycle blocker” value is recorded as “increased”. In data set [5], the “cell cycle phase by flow cytometry” value is “blocked at the G2/M cell cycle phase”.

Regarding “d(CCCTAGCTCACACTCTCATT) (antisense dC*dC*dC*dT*dA*dG*dC*dT*dC*dA*dC*dA*dC*dT*dC*dT*dC*dA*dT*dT) [Oligo 903, 20-mer phosphorothioate survivin antisense oligonucleotide, complementary to survivin mRNA 4385-4404]”, the “fold change of XIAP protein over β-tubulin relative to lipofectin” value in data set [2] was found to be 5.2 fold. Besides, the “percentage of survivin protein over β-tubulin relative to lipofectin” value in data set [3] (50 nM, 48 hours (FIG. 3B)) amounted to 83.9%; in data set [3] (75 nM, 48 hours (FIG. 3B)) it was 62.6%; in data set [3] (100 nM, 48 hours (FIG. 3B)) it was 95.6%; in data set [3] (200 nM, 48 hours (FIG. 3B)), 48.5%; in data set [3] (setting [9]) it was 24.3%. The compound also had a reduction in survivin in data set [3] (200 nM, 48 hours (FIG. 3B)) of 51%. Moreover, the “decrease in survivin protein levels relative to lipofectin-treated control, normalized to β-tubulin” value in data set [3] (400 nM, 48 hours (FIG. 3A)) is listed as 76%. Besides, the “effect on survivin protein levels” value in data set [3] (lipofectin, 48 hours) is “concentration-dependent decrease in survivin protein levels”. Moreover, in data set [8], the “PARP cleavage, words” value is reported as “did not activate caspase-3 or cleave the caspase-3 substrate, PARP”. Moreover, in data set [6] (MSN cells, 400 nM, 48 hours), the “caspase-3 activity” value is listed as “no significant increase in caspase-3 activity; also recorded: did not activate caspase-3”. For the same compound, the “caspase-3 activity, Relative units/mg protein +/− SD” value in data set [6] (MSN cells, 400 nM, 48 hours, triplicate) is listed as 27,850 ± 2311 Relative units/mg protein.
